# Reference: ChEMBL document CHEMBL6074674, “Development of Novel Silicon-Based Hydrophobic Tags (SiHyT) for Targeted Proteins Degradation” (J Med Chem, 2024)
# Calls of active or inactive are those of the source. The rule behind the calls is not given here.
# How the values were obtained:
# PC-9 [1] = assay: Induction of apoptosis in human PC-9 cells at 0.5 to 2 uM incubated for 48 hrs by AnnexinV-FITC/PI staining based flow cytometry; assay type: functional, cell-based; details: dose 0.5-2 µM
# HCC827 [2] = assay: Inhibition of cell invasion in human HCC827 cells at 0.25 to 2 uM incubated for 12 hrs by Transwell assay; assay type: functional, cell-based; details: dose 0.25-2 µM
# [3] = AUC in ICR mouse at 1 mg/kg, iv by LC-MS/MS analysis; assay type: ADME, organism-based; details: in vivo
# HEK-293T = assay: Cytotoxicity against human HEK293T cells assessed as reduction in cell viability; assay type: toxicity, cell-based
# [4] = Toxicity in mouse assessed as pathological changes in liver administered for 14 days by Hematoxylin-Eosin staining based analysis; assay type: tissue-based; details: in vivo, 336 h, time 14 day
# HUVEC = assay: Cytotoxicity against human HUVEC cells assessed as reduction in cell viability; assay type: toxicity, cell-based
# PC-9 [5] = assay: Induction of interaction between RNF149/EGFR mutant in human PC-9 cells by pull-down based LC-MS/MS analysis; assay type: cell-based
# [6] = MRT in ICR mouse at 1 mg/kg, iv by LC-MS/MS analysis; assay type: ADME, organism-based; details: in vivo
# [7] = target: Epidermal growth factor receptor (Homo sapiens) (UniProt P00533); assay: Induction of EGFR mutant degradation in human PC-9 cells transfected with RNF149 shRNA at 1 uM by western blot analysis; assay type: cell-based
# Epidermal growth factor receptor (Homo sapiens), sequence (P00533 whole entry): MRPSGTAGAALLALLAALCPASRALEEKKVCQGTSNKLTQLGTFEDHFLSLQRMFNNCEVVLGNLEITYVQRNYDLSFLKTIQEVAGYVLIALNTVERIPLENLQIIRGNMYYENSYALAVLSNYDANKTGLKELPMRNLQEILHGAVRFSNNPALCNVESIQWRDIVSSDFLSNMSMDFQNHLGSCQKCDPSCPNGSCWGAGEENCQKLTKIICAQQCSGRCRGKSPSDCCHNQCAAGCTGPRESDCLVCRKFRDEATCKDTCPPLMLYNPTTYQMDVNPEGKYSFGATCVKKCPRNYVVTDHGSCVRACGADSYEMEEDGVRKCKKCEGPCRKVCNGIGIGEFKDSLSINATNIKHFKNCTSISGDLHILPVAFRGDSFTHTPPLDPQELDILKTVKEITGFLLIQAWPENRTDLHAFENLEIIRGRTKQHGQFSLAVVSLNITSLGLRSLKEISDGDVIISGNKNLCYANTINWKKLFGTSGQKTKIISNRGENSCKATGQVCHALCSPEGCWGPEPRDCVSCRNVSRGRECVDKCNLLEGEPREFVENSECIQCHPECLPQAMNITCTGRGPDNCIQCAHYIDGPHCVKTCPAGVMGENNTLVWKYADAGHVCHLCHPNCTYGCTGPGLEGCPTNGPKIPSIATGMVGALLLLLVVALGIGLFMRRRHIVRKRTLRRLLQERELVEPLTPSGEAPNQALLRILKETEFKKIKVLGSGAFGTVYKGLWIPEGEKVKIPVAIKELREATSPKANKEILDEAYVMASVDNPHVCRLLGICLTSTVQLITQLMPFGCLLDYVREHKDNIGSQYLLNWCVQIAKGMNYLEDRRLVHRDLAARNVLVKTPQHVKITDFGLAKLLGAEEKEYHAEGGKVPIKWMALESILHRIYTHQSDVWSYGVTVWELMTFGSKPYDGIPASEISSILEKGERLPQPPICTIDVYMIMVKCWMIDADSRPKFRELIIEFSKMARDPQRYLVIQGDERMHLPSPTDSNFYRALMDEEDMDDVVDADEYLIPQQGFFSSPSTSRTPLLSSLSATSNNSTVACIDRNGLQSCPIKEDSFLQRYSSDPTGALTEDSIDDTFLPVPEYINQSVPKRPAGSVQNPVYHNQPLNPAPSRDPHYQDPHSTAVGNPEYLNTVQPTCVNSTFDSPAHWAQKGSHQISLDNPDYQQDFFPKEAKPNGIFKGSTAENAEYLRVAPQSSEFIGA
# [8] = MRT in ICR mouse at 10 mg/kg, po by LC-MS/MS analysis; assay type: ADME, organism-based; details: in vivo
# PC-9 [9] = assay: Antiproliferative activity against human PC-9 cells assessed as decrease in cell survival measured after 72 hrs by CCK-8 assay; assay type: functional, cell-based; details: PC-9, 72 h
# HCC827 [10] = assay: Antiproliferative activity against human HCC827 cells assessed as decrease in cell survival measured after 72 hrs by CCK-8 assay; assay type: functional, cell-based; details: HCC827, 72 h
# [11] = test system: E3 ubiquitin-protein ligase RNF149/Epidermal growth factor receptor (Homo sapiens), P00533+Q8NC42 [UNDEFINED MUTATION]; assay: SiHyT-mediated degrader activity at RNF149/EGFR mutant in human HCC827 cells assessed as induction of EGFR degradation by measuring decrease in EGFR level at 1 uM measured after 9 hrs by western blot analysis; assay type: cell-based
# E3 ubiquitin-protein ligase RNF149/Epidermal growth factor receptor (Homo sapiens), P00533+Q8NC42 [UNDEFINED MUTATION], sequence (P00533 whole entry, looked up, stated change not applied): as the sequence (P00533 whole entry) above
# E3 ubiquitin-protein ligase RNF149/Epidermal growth factor receptor (Homo sapiens), P00533+Q8NC42 [UNDEFINED MUTATION], sequence (Q8NC42 whole entry, looked up, stated change not applied): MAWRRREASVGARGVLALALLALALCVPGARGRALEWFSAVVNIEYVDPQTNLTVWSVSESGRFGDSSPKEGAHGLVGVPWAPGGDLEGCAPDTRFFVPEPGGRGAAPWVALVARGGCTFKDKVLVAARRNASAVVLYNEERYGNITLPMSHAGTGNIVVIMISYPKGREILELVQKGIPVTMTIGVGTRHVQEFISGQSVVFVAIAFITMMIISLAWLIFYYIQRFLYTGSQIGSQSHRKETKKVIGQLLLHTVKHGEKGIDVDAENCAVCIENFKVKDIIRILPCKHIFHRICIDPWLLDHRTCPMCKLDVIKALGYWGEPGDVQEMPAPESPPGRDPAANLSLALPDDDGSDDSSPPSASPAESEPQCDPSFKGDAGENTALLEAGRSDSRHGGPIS
# L02 = assay: Cytotoxicity against human LO2 cells assessed as reduction in cell viability; assay type: toxicity, cell-based
# PC-9 [12] = assay: Induction of interaction between RNF149/EGFR mutant in human PC-9 cells measured after 6 hrs by co-immunoprecipitation analysis; assay type: cell-based
# [13] = test system: E3 ubiquitin-protein ligase RNF149/Epidermal growth factor receptor (Homo sapiens), P00533+Q8NC42 [UNDEFINED MUTATION]; assay: (§1) SiHyT-mediated degrader activity at RNF149/EGFR mutant in human HCC827 cells assessed as induction of EGFR degradation cells incubated in serum-free media for 8 hrs followed by incubation with compound for 24 hrs by western blot analysis; assay type: cell-based
# [14] = target: E3 ubiquitin-protein ligase RNF149/Epidermal growth factor receptor (Homo sapiens, UniProt P00533+Q8NC42); assay: as §1; assay type: cell-based
# E3 ubiquitin-protein ligase RNF149/Epidermal growth factor receptor, sequence (P00533 whole entry, looked up, change not shown): as the sequence (P00533 whole entry) above
# E3 ubiquitin-protein ligase RNF149/Epidermal growth factor receptor, sequence (Q8NC42 whole entry, looked up, change not shown): as the sequence (Q8NC42 whole entry, looked up, stated change not applied) above
# [15] = test system: E3 ubiquitin-protein ligase RNF149/Epidermal growth factor receptor (Homo sapiens), P00533+Q8NC42 [UNDEFINED MUTATION]; assay: SiHyT-mediated degrader activity at RNF149/EGFR mutant in human HCC827 cells assessed as induction of EGFR degradation by measuring EGFR expression level at 1 uM incubated for 24 hrs followed by drug wash-out and measured after 24 hrs by western blot analysis; assay type: cell-based
# BEAS-2B = assay: Cytotoxicity against human BEAS-2B cells assessed as reduction in cell viability; assay type: toxicity, cell-based
# PC-9 [16] = assay: SiHyT-mediated degrader activity at RNF149/EGFR mutant in human PC-9 cells assessed as induction of EGFR degradation by measuring decrease in EGFR level at 2 uM measured after 9 hrs by western blot analysis; assay type: cell-based
# [17] = Half life of the compound in human liver microsomes at 1 uM in presence of NADPH by LC-MS/MS analysis; assay type: ADME, Microsome
# [18] = test system: E3 ubiquitin-protein ligase RNF149/Epidermal growth factor receptor (Homo sapiens), P00533+Q8NC42 [UNDEFINED MUTATION]; assay: SiHyT-mediated degrader activity at RNF149/EGFR mutant in human HCC827 cels assessed as induction of EGFR degradation at 0.1 uM cells incubated in serum-free media for 8 hrs followed by incubation with compound for 24 hrs by western blot analysis; assay type: cell-based
# [19] = Tmax in ICR mouse at 1 mg/kg, iv by LC-MS/MS analysis; assay type: ADME, organism-based; details: in vivo
# [20] = Cmax in ICR mouse at 1 mg/kg, iv by LC-MS/MS analysis; assay type: ADME, organism-based; details: in vivo
# [21] = Intrinsic clearance of the compound in mouse liver microsomes at 1 uM in presence of NADPH by LC-MS/MS analysis; assay type: ADME, Microsome; details: read-out: CLH
# HCC827 [22] = assay: Induction of apoptosis in human HCC827 cells at 0.5 to 2 uM incubated for 48 hrs by AnnexinV-FITC/PI staining based flow cytometry; assay type: functional, cell-based; details: dose 0.5-2 µM
# [23] = Toxicity in mouse assessed as pathological changes in kidneys administered for 14 days by Hematoxylin-Eosin staining based analysis; details: in vivo, 336 h, time 14 day
smiles,measurement,setting,value
COc1cc2ncnc(Nc3ccc(F)c(Cl)c3)c2cc1OCCn1cc(CCCO[Si](c2ccccc2)(c2ccccc2)C(C)(C)C)nn1,Activity,PC-9 [1],Dose-dependent-effect
same,inhibition,HCC827 [2],Active
same,AUC,[3],2164.76 ng·mL·h
same,Activity,HEK-293T,Toxic
same,Activity,[4],Non-toxic
same,Activity,HUVEC,Toxic
same,Activity,PC-9 [5],Active
same,MRT,[6],2.72 h
same,Activity,[7],inactive
same,MRT,[8],2.57 h
same,IC50,PC-9 [9],340 nM
same,IC50,HCC827 [10],70 nM
same,Activity,[11],Active
same,Activity,L02,Toxic
same,Activity,PC-9 [12],Active
same,Activity,[13],Dose-dependent-effect
same,DC50,[14],750 nM
same,Activity,[15],inactive
same,Activity,BEAS-2B,Toxic
same,Activity,PC-9 [16],Active
same,half-life at 1 µM,[17],> 1 h
same,Activity,[18],54.6%
same,Tmax,[19],4.8 min
same,Cmax,[20],2210 ng/mL
same,CLint scaled at 1 µM,[21],21.9 mL/min/kg
same,Activity,HCC827 [22],Dose-dependent-effect
same,Activity,[23],Non-toxic
